In patent publication US20230025976A1, “PRMT5 Inhibitor for Use In A Method of Treating Psoriasis and Other Autoimmune Conditions” (Pfizer Inc., priority 2020, published 2023):

System: psoriasis patient
Test: Treatment of a psoriasis patient (case report, Example 1)
Format: in vivo, human
Details: for Psoriasis symptoms, skin, front of torso / Psoriasis symptoms, skin, back of torso: psoriasis patient
Description: They had chronic psoriatic lesions on the front and back sides of their torso. The lesions covered 75% of their body, and the patient had difficulty controlling these symptoms despite having used several different medications in the past. The psoriasis symptoms worsened after chemotherapy. The patient was treated with 1 mg of (1S,2S,3S,5R)-3-((6-(difluoromethyl)-5-fluoro-1,2,3,4-tetrahydroisoquinolin-8-yl) oxy)-5-(4-methyl-7H-pyrrolo[2,3-d]pyrimidin-7-yl)cyclopentane-1,2-diol orally twice a day, for four months. During the treatment period the patient was questioned about other medical conditions, if any, they were then experiencing. […] The patient discontinued treatment after four months, for reasons unrelated to their psoriasis. […] Photos taken after two and six weeks of treatment document the clearing of psoriasis symptoms. FIGS. 1 and 2 depict said clearing of psoriasis symptoms.

Compound: Cc1ncnc2c1ccn2[C@@H]1C[C@H](Oc2cc(C(F)F)c(F)c3c2CNCC3)[C@@H](O)[C@H]1O [(1S,2S,3S,5R)-3-((6-(difluoromethyl)-5-fluoro-1,2,3,4-tetrahydroisoquinolin-8-yl)oxy)-5-(4-methyl-7H-pyrrolo [2,3-d]pyrimidin-7-yl)cyclopentane-1,2-diol]
- Psoriatic skin lesions after cessation of treatment (1 mg orally twice a day for four months, one month after cessation of treatment): remained in remission
- Psoriatic skin lesions (person, severe psoriasis, 1 mg orally twice a day, following six weeks treatment): significant clearing
- Psoriatic skin lesions and related itching, patient-reported (person, severe psoriasis, 1 mg orally twice a day, within one week of initiating treatment): improvement in their psoriatic skin lesions and a lessening of related itching
- Psoriasis symptoms, skin, front of torso (1 mg twice daily for six weeks, FIG. 1B): mild
- Psoriasis symptoms, skin, back of torso (1 mg twice daily for six weeks, FIG. 2B): mild
- Psoriasis symptoms, skin, front of torso (1 mg twice daily for two weeks, FIG. 1A): moderate
- Psoriasis symptoms, skin, back of torso (1 mg twice daily for two weeks, FIG. 2A): moderate
